{
  "source": "patent US20050208496A1",
  "about": "“Methods of testing for bronchial asthma or chronic obstructive pulmonary disease” (Genox Research, Inc., priority 2002, published 2005)",
  "tested_on": "mouse OVA antigen-exposed bronchial hypersensitivity model",
  "assay": "Quantitative PCR (ABI 7700) of selected genes using cDNA of the mouse OVA antigen-exposed bronchial hypersensitivity model",
  "format": "in vivo",
  "details": "OVA-administered group",
  "experimental": "Eighty-eight genes, most of which were recognized as genes whose expression levels were altered in human and mouse, were selected from the genes narrowed down in Section 4. A quantitative PCR assay was carried out with ABI 7700 using cDNA from the human goblet cell differentiation model and using cDNA from the mouse OVA antigen-exposed bronchial hypersensitivity model.\nThe primers and TaqMan probe used in the assay with ABI 7700 were designed based on the information on the sequence of each gene utilizing Primer Express (PE Biosystems). The 5′ and 3′ ends of the TaqMan probe were labeled with FAM (6-carboxy-fluorescein) and TAMRA (6-carboxy-N,N,N′,N′-tetramethylrhodamine), respectively. The nucleotide sequences of oligonucleotides for the forward primer (F), reverse primer (R), and TaqMan probe (TP) for each gene are shown below. […]\nFurthermore, similar quantitative analyses for the β-actin gene and the glyceraldehyde-3-phosphate dehydrogenase (GAPDH) gene as internal standards for correction were carried out to correct the difference of cDNA concentration in a sample. The copy number of the gene of interest was determined by correcting based on the determined copy numbers for the genes. […]",
  "data": [
    {"substance": "ovalbumin [OVA antigen, ovalbumin antigen used for sensitization and inhalation to induce bronchial hypersensitivity in mice]", "values": [
      {"measurement": "expression levels of the respective genes (quantitative PCR, corrected with β-actin)", "value": "significant variations"}
    ]}
  ]
}
